According to ChEMBL document CHEMBL4825722, “Discovery of Potent Selective Nonzinc Binding Autotaxin Inhibitor BIO-32546” (ACS Med Chem Lett, 2021):
In brackets after ≈: the same amount, converted by molar mass.

How the values were obtained:
Autotaxin = Autotaxin (Homo sapiens, UniProt Q13822); assay: Inhibition of human ATX assessed as reduction in LPA formation using FS-3 as substrate preincubated for 30 mins followed by substrate addition and measured after 2 hrs by FRET assay
hERG (KCNH2) = hERG (KCNH2) (Homo sapiens, UniProt Q12809); assay: Inhibition of human ERG at 1 uM by automated patch-clamp assay relative to control
[1] = Clearance in rat at 1.0 mg/kg, iv; type: ADME, organism-based; settings: in vivo, time <=24 hrs
[2] = Clearance in dog at 0.2 mg/kg, iv; type: ADME, organism-based, Canis lupus familiaris; settings: in vivo
[3] = Clearance in cynomolgus monkey at 0.2 mg/kg, iv; type: ADME, organism-based, Macaca fascicularis; settings: in vivo
[4] = Volume of distribution at steady state in rat at 1.0 mg/kg, iv; type: ADME, organism-based; settings: in vivo, read-out: Vdss
[5] = Volume of distribution at steady state in dog at 0.2 mg/kg, iv; type: ADME, organism-based, Canis lupus familiaris; settings: in vivo, read-out: Vdss
[6] = Volume of distribution at steady state in cynomolgus monkey at 0.2 mg/kg, iv; type: ADME, organism-based, Macaca fascicularis; settings: in vivo, read-out: Vdss
[7] = Half life in rat at 1.0 mg/kg, iv; type: ADME, organism-based; settings: in vivo
[8] = Half life in dog at 0.2 mg/kg, iv; type: ADME, organism-based, Canis lupus familiaris; settings: in vivo
[9] = Half life in cynomolgus monkey at 0.2 mg/kg, iv; type: ADME, organism-based, Macaca fascicularis; settings: in vivo
[10] = AUC (0 to 24 hrs) in rat at 1 mg/kg, iv; type: ADME, organism-based; parameters: time < 24 hr, route intravenous, dose 1 mg/kg; settings: in vivo
[11] = AUC (0 to 24 hrs) in rat at 10 mg/kg, po; type: ADME, organism-based; parameters: time < 24 hr, route oral, dose 10 mg/kg; settings: in vivo
[12] = AUC (0 to 24 hrs) in dog at 0.2 mg/kg, iv; type: ADME, organism-based, Canis lupus familiaris; parameters: time < 24 hr, route intravenous, dose 0.2 mg/kg; settings: in vivo
[13] = AUC (0 to 24 hrs) in dog at 1.0 mg/kg, po; type: ADME, organism-based, Canis lupus familiaris; parameters: time < 24 hr, route oral, dose 1 mg/kg; settings: in vivo
[14] = AUC (0 to 24 hrs) in cynomolgus monkey at 1.0 mg/kg, po; type: ADME, organism-based, Macaca fascicularis; parameters: time < 24 hr, route oral, dose 1 mg/kg; settings: in vivo
[15] = Cmax in rat at 10 mg/kg, po; type: ADME, organism-based; parameters: route oral, dose 10 mg/kg; settings: in vivo
[16] = Cmax in dog at 1.0 mg/kg, po; type: ADME, organism-based, Canis lupus familiaris; parameters: route oral, dose 1 mg/kg; settings: in vivo
[17] = Tmax in rat at 10 mg/kg, po; type: ADME, organism-based; settings: in vivo
[18] = Oral bioavailability in dog at 1.0 mg/kg; type: ADME, organism-based, Canis lupus familiaris; settings: in vivo
[19] = Oral bioavailability in cynomolgus monkey at 1.0 mg/kg; type: ADME, organism-based, Macaca fascicularis; settings: in vivo
[20] = Solubility of the compound at pH 7.0 by shake flask method; settings: buffer
[21] = Apparent permeability across apical to basolateral side in human Caco-2 cells incubated for 120 mins by lucifer yellow based LC-MS/MS analysis
[22] = Apparent permeability across basolateral to apical side in human Caco-2 cells incubated for 120 mins by lucifer yellow based LC-MS/MS analysis
[23] = Protein binding in rat plasma assessed as unbound fraction; type: ADME, cell-free
Cytochrome P450 3A4 = Cytochrome P450 3A4 (Homo sapiens, UniProt P08684); assay: Inhibition of CYP3A4 in human liver microsomes incubated for 15 mins in presence of NADPH by LC-MS/MS analysis; type: ADME
Cytochrome P450 2C9 = Cytochrome P450 2C9 (Homo sapiens, UniProt P11712); assay: Inhibition of CYP2C9 in human liver microsomes incubated for 15 mins in presence of NADPH by LC-MS/MS analysis; type: ADME
[24] = Total brain to plasma concentration ratio in rat at 10 mg/kg, po measured after 4 hrs; type: ADME, organism-based; settings: brain and plasma, read-out: BPR
[25] = Volume of distribution at steady state in C57BL/6 mouse plasma at 2.32 mg/kg; type: ADME, organism-based; settings: read-out: Vdss
[26] = AUC (0 to 24 hrs) in C57BL/6 mouse plasma at 2.32 mg/kg; type: ADME, organism-based; parameters: time < 24 hr, dose 2.32 mg/kg
[27] = AUC (0 to 24 hrs) in C57BL/6 mouse brain at 2.32 mg/kg, iv; type: ADME, organism-based; parameters: time < 24 hr, route intravenous, dose 2.32 mg/kg
[28] = AUC (0 to 24 hrs) in C57BL/6 mouse plasma at 10 mg/kg, po; type: ADME, organism-based; parameters: time < 24 hr, route oral, dose 10 mg/kg
[29] = Cmax in C57BL/6 mouse brain at 2.32 mg/kg, iv; type: ADME, organism-based; parameters: route intravenous, dose 2.32 mg/kg
[30] = Cmax in C57BL/6 mouse plasma at 10 mg/kg, po; type: ADME, organism-based; parameters: route oral, dose 10 mg/kg
[31] = Tmax in C57BL/6 mouse brain at 2.32 mg/kg, iv; type: ADME, organism-based
[32] = Tmax in C57BL/6 mouse plasma at 10 mg/kg, po; type: ADME, organism-based
[33] = Tmax in C57BL/6 mouse brain at 10 mg/kg, po; type: ADME, organism-based
[34] = Oral bioavailability in C57BL/6 mouse at 10 mg/kg; type: ADME, organism-based; settings: in vivo
[35] = Protein binding in C57BL/6 mouse plasma assessed as unbound fraction; type: ADME, cell-free
[36] = Protein binding in C57BL/6 mouse brain assessed as unbound fraction; type: ADME, tissue-based
[37] = Unbound Cmax in C57BL/6 mouse brain at 10 mg/kg, po; type: ADME, organism-based; settings: in vivo
Rattus norvegicus [38] = assay: Effect on Sprague-Dawley rat CFA inflammatory […] model assessed as reduction in 20:4 LPA level at 0.1 mg/kg, po after 6 hrs by LC-MS/MS analysis; type: functional; parameters: scale not given: the % may be the effect or the level left
Rattus norvegicus [39] = assay: Effect on Sprague-Dawley rat CFA inflammatory […] model assessed as reduction in 20:4 LPA level at 10 mg/kg, po after 6 hrs by LC-MS/MS analysis; type: functional; parameters: scale not given: the % may be the effect or the level left
[40] = Drug concentration in rat brain at 10 mg/kg, po after 4 hrs; type: ADME, organism-based; settings: read-out: Ct
[41] = molecular target: Sphingosine 1-phosphate receptor 1 (Homo sapiens, UniProt P21453); assay: Inhibition of S1P1 (unknown origin)
[42] = molecular target: Sphingosine 1-phosphate receptor 3 (Homo sapiens, UniProt Q99500); assay: Inhibition of S1P3 (unknown origin)
[43] = molecular target: T1, Sphingosine 1-phosphate receptor 4 (Homo sapiens, UniProt O95977); assay: Inhibition of S1P4 (unknown origin)
T1 sequence (O95977 whole entry): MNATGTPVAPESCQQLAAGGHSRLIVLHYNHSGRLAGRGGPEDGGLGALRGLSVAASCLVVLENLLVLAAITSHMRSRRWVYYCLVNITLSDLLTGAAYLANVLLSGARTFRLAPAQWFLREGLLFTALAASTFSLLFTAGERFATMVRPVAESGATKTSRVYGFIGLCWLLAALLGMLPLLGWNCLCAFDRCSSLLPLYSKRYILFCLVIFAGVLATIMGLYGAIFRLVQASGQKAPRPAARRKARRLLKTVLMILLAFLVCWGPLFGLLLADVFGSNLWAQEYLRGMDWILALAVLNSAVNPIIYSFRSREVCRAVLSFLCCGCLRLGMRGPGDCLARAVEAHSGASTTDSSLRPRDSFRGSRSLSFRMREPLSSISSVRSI

Rattus norvegicus [44] = assay: Effect on Sprague-Dawley rat CFA inflammatory […] model assessed as reduction in 20:4 LPA level at 0.3 mg/kg after 6 hrs by LC-MS/MS analysis; type: functional; parameters: scale not given: the % may be the effect or the level left
[45] = Drug concentration in Sprague-Dawley rat at 3 mg/kg, po after 6 hrs by LC-MS/MS analysis; type: ADME, organism-based; settings: in vivo, read-out: Drug uptake
[46] = Drug concentration in Sprague-Dawley rat at 10 mg/kg, po after 6 hrs by LC-MS/MS analysis; type: ADME, organism-based; settings: in vivo, read-out: Drug uptake

Chain of Sphingosine 1-phosphate receptor 3 (Q99500 whole entry): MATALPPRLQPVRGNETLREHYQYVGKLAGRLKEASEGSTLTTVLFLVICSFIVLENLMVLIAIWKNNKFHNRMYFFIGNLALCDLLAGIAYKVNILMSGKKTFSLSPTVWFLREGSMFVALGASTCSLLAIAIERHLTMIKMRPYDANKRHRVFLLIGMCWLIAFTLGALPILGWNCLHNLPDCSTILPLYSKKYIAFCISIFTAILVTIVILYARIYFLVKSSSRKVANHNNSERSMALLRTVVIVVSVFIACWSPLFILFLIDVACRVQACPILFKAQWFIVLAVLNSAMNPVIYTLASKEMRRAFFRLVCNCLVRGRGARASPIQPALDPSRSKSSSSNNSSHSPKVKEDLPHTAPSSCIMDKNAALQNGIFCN
Chain of Sphingosine 1-phosphate receptor 1 (P21453 whole entry): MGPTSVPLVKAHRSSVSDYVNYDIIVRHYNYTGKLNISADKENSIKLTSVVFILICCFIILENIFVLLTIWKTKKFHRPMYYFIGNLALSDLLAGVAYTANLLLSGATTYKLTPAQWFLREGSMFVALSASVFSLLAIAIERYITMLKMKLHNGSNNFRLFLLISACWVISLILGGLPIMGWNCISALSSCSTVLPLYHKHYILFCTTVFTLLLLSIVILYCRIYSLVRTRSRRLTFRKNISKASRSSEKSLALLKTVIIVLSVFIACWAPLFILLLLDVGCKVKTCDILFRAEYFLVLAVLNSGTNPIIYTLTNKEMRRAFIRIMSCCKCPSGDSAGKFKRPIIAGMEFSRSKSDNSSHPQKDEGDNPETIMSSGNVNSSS
Chain of Cytochrome P450 2C9 (P11712 whole entry): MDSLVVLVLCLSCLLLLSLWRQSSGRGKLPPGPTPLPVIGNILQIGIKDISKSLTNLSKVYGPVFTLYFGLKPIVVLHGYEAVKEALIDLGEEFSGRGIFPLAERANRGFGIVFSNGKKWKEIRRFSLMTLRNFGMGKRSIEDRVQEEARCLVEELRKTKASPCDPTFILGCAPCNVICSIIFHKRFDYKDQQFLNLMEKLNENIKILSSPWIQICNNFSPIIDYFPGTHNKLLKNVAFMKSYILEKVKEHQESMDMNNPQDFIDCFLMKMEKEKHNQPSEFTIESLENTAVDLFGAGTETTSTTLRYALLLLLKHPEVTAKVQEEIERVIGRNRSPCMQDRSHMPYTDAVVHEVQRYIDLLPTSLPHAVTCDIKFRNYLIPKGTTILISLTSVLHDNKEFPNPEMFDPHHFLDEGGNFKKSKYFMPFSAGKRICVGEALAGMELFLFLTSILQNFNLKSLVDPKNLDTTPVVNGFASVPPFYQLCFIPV
Chain of Cytochrome P450 3A4 (P08684 whole entry): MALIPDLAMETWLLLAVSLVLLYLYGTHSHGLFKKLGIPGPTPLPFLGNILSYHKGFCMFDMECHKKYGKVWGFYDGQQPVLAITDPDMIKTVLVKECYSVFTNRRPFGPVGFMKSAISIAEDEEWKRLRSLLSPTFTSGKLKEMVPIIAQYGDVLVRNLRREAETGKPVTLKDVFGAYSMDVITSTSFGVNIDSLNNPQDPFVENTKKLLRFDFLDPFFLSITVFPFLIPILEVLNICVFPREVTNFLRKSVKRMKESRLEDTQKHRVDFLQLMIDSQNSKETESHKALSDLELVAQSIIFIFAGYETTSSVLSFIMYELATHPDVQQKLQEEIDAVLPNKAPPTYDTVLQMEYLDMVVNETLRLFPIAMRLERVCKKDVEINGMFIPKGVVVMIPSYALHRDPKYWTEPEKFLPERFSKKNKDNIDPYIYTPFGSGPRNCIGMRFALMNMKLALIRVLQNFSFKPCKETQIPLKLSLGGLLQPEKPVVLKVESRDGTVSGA
Chain of hERG (KCNH2) (Q12809 whole entry): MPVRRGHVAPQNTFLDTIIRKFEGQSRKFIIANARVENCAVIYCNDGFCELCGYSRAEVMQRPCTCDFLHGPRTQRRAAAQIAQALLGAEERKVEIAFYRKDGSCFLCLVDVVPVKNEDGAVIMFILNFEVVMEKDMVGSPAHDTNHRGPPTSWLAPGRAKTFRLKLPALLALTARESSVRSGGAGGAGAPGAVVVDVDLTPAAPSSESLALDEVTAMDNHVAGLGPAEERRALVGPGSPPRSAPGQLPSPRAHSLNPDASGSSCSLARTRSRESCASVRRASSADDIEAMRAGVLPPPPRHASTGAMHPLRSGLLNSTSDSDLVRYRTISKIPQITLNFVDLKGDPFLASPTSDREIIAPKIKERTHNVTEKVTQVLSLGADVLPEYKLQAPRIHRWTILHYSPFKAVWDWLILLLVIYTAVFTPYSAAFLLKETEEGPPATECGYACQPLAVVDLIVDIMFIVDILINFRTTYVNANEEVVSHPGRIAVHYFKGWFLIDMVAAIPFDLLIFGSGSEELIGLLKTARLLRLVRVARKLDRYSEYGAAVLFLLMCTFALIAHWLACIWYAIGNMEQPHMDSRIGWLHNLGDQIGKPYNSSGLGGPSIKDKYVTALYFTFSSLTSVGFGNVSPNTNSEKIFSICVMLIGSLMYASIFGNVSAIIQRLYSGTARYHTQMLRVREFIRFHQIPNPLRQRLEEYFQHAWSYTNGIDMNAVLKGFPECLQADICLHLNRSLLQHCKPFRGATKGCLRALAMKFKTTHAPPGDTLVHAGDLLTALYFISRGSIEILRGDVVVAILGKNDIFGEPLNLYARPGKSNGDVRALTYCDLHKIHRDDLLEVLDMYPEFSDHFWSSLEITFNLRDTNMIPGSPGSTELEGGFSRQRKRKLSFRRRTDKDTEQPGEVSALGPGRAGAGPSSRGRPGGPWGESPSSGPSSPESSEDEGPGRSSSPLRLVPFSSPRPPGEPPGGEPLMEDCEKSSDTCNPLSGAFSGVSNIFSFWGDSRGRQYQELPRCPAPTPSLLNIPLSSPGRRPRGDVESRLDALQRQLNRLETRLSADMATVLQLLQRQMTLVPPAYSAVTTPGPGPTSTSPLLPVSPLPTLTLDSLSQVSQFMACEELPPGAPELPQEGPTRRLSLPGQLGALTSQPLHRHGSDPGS

Q: With C[C@@H](c1ccc2ccc(O[C@H]3CC[C@@H](C(F)(F)F)CC3)c(C(F)(F)F)c2c1)N1C2CCC1CC(C(=O)O)C2 (stereo not given in full) as the molecule, how does the IC50 (Autotaxin) read?
A: 0.001 µM

Q: What about the inhibition at 1 µM (hERG (KCNH2)) of the same molecule?
A: 1.4%

Q: And the clearance [1]?
A: 29 mL/min/kg

Q: What about the clearance [2] of the same molecule?
A: 1.7 mL/min/kg

Q: And the clearance [3]?
A: 9.3 mL/min/kg

Q: And the Vd [4]?
A: 3 L/kg

Q: What about the Vd [5] of the same molecule?
A: 2 L/kg

Q: And the Vd [6]?
A: 2.4 L/kg

Q: What about the half-life [7] of the same molecule?
A: 3 h

Q: What about the half-life [8] of the same molecule?
A: 14 h

Q: What about the half-life [9] of the same molecule?
A: 4 h

Q: And the AUC(0-t) at 24 h [10]?
A: 594 ng·h/mL

Q: And the AUC(0-t) at 24 h [11]?
A: 3970 ng·h/mL

Q: What about the AUC(0-t) at 24 h [12] of the same molecule?
A: 1390 ng·h/mL

Q: What about the AUC(0-t) at 24 h [13] of the same molecule?
A: 6590 ng·h/mL

Q: What about the AUC(0-t) at 24 h [14] of the same molecule?
A: 614 ng·h/mL

Q: And the Cmax [15]?
A: 813 ng/mL

Q: And the Cmax [16]?
A: 376 ng/mL

Q: What about the Tmax [17] of the same molecule?
A: 1.6 h

Q: And the bioavailability [18]?
A: 69%

Q: What about the bioavailability [19] of the same molecule?
A: 34%

Q: What about the solubility thermodynamic [20] of the same molecule?
A: 73.2 µg/mL (≈ 135 µM)

Q: And the Papp A→B at 2 h [21]?
A: 16.8 ×10⁻⁶ cm/s

Q: And the Papp B→A at 2 h [22]?
A: 40.3 ×10⁻⁶ cm/s

Q: And the Fu [23]?
A: 0.45%

Q: And the IC50 (Cytochrome P450 3A4)?
A: > 10 µM

Q: What about the IC50 (Cytochrome P450 2C9) of the same molecule?
A: > 10 µM

Q: And the Kp at 4 h [24]?
A: 0.2

Q: And the Vd [25]?
A: 2.36 L/kg

Q: What about the AUC(0-t) at 24 h [26] of the same molecule?
A: 6170 ng·h/mL

Q: And the AUC(0-t) at 24 h [27]?
A: 3020 ng·h/mL

Q: And the AUC(0-t) at 24 h [28]?
A: 12200 ng·h/mL

Q: And the Cmax [29]?
A: 274 ng/mL

Q: What about the Cmax [30] of the same molecule?
A: 1070 ng/mL

Q: What about the Tmax [31] of the same molecule?
A: 3 h

Q: What about the Tmax [32] of the same molecule?
A: 3 h

Q: And the Tmax [33]?
A: 7 h

Q: And the bioavailability [34]?
A: 51%

Q: What about the Fu [35] of the same molecule?
A: 0.599%

Q: And the Fu [36]?
A: 0.096%

Q: And the fCmax [37]?
A: 1.5 nM

Q: And the Activity (Rattus norvegicus [38])?
A: 89%

Q: What about the Activity (Rattus norvegicus [39]) of the same molecule?
A: 48%

Q: And the concentration at 4 h [40]?
A: 97 ng/mL

Q: And the IC50 [41]?
A: > 10 µM

Q: And the IC50 [42]?
A: > 10 µM

Q: And the IC50 [43]?
A: > 10 µM

Q: And the Activity (Rattus norvegicus [44])?
A: 92%

Q: And the concentration at 6 h [45]?
A: 42 ng/mL

Q: And the concentration at 6 h [46]?
A: 188 ng/mL
